In PubChem BioAssay (NCI):
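Here, GI50 denotes the concentration required for 50% inhibition of growth. At the TGI there is no net growth.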

Legend:
Experiment in all cases: NCI-60 cell line screen, 384-well format
NCI-H226 lung = tested on: NCI-H226 lung
NCI-H23 lung = tested on: NCI-H23 lung
NCI-H322M lung = tested on: NCI-H322M lung
NCI-H460 NSCLC = tested on: NCI-H460 NSCLC
NCI-H522 lung = tested on: NCI-H522 lung
NCI/ADR-RES ovarian = tested on: NCI/ADR-RES ovarian
OVCAR-3 ovarian = tested on: OVCAR-3 ovarian
OVCAR-4 ovarian = tested on: OVCAR-4 ovarian
OVCAR-5 ovarian = tested on: OVCAR-5 ovarian
OVCAR-8 ovarian = tested on: OVCAR-8 ovarian
PC-3 prostate = tested on: PC-3 prostate
RPMI-8226 leukemia = tested on: RPMI-8226 leukemia
RXF 393 renal = tested on: RXF 393 renal
SF-268 CNS = tested on: SF-268 CNS
SF-295 CNS = tested on: SF-295 CNS
SF-539 CNS = tested on: SF-539 CNS
SK-MEL-2 melanoma = tested on: SK-MEL-2 melanoma
SK-MEL-28 melanoma = tested on: SK-MEL-28 melanoma
SK-MEL-5 melanoma = tested on: SK-MEL-5 melanoma
SK-OV-3 ovarian = tested on: SK-OV-3 ovarian
SN12C renal = tested on: SN12C renal
SNB-19 CNS = tested on: SNB-19 CNS
SNB-75 CNS = tested on: SNB-75 CNS
SR leukemia = tested on: SR leukemia
SW-620 colon = tested on: SW-620 colon
T-47D breast = tested on: T-47D breast
TK-10 renal = tested on: TK-10 renal
U251 glioblastoma = tested on: U251 glioblastoma
UACC-257 melanoma = tested on: UACC-257 melanoma
UACC-62 melanoma = tested on: UACC-62 melanoma

Cc1ccncc1N1CCN(c2ccnc(Cl)c2)C1=O
TGI (NCI-H226 lung): > 100 µM | GI50 (NCI-H23 lung): > 100 µM | TGI (NCI-H23 lung): > 100 µM | GI50 (NCI-H322M lung): > 100 µM | TGI (NCI-H322M lung): > 100 µM | GI50 (NCI-H460 NSCLC): > 100 µM | TGI (NCI-H460 NSCLC): > 100 µM | GI50 (NCI-H522 lung): > 100 µM | TGI (NCI-H522 lung): > 100 µM | GI50 (NCI/ADR-RES ovarian): > 100 µM | TGI (NCI/ADR-RES ovarian): > 100 µM | GI50 (OVCAR-3 ovarian): > 100 µM | TGI (OVCAR-3 ovarian): > 100 µM | GI50 (OVCAR-4 ovarian): > 100 µM | TGI (OVCAR-4 ovarian): > 100 µM | GI50 (OVCAR-5 ovarian): > 100 µM | TGI (OVCAR-5 ovarian): > 100 µM | GI50 (OVCAR-8 ovarian): > 100 µM | TGI (OVCAR-8 ovarian): > 100 µM | GI50 (PC-3 prostate): > 100 µM | TGI (PC-3 prostate): > 100 µM | GI50 (RPMI-8226 leukemia): > 100 µM | TGI (RPMI-8226 leukemia): > 100 µM | GI50 (RXF 393 renal): > 100 µM | TGI (RXF 393 renal): > 100 µM | GI50 (SF-268 CNS): > 100 µM | TGI (SF-268 CNS): > 100 µM | GI50 (SF-295 CNS): > 100 µM | TGI (SF-295 CNS): > 100 µM | GI50 (SF-539 CNS): > 100 µM | TGI (SF-539 CNS): > 100 µM | GI50 (SK-MEL-2 melanoma): > 100 µM | TGI (SK-MEL-2 melanoma): > 100 µM | GI50 (SK-MEL-28 melanoma): > 100 µM | TGI (SK-MEL-28 melanoma): > 100 µM | GI50 (SK-MEL-5 melanoma): > 100 µM | TGI (SK-MEL-5 melanoma): > 100 µM | GI50 (SK-OV-3 ovarian): > 100 µM | TGI (SK-OV-3 ovarian): > 100 µM | GI50 (SN12C renal): > 100 µM | TGI (SN12C renal): > 100 µM | GI50 (SNB-19 CNS): > 100 µM | TGI (SNB-19 CNS): > 100 µM | GI50 (SNB-75 CNS): > 100 µM | TGI (SNB-75 CNS): > 100 µM | GI50 (SR leukemia): > 100 µM | TGI (SR leukemia): > 100 µM | GI50 (SW-620 colon): > 100 µM | TGI (SW-620 colon): > 100 µM | GI50 (T-47D breast): > 100 µM | TGI (T-47D breast): > 100 µM | GI50 (TK-10 renal): > 100 µM | TGI (TK-10 renal): > 100 µM | GI50 (U251 glioblastoma): > 100 µM | TGI (U251 glioblastoma): > 100 µM | GI50 (UACC-257 melanoma): > 100 µM | TGI (UACC-257 melanoma): > 100 µM | GI50 (UACC-62 melanoma): > 100 µM | TGI (UACC-62 melanoma): > 100 µM
